Assay results published in publication PMC10850145, “Hormonal steroids induce multidrug resistance and stress response genes in Neisseria gonorrhoeae by binding to MtrR” (Nature Communications, 2024).
Several values for one entry are separate records, joined by “and”; a condition that tells them apart may be missing. Equal values may be shown once.

Assays:
FA19-rpoH-lacZ = assay: Gonococcal growth in liquid culture (GC broth) with hormones (Fig S7)
[1] = molecular target: T1, MtrR binding to rpoH operator (27mer) (Neisseria gonorrhoeae, UniProt P39897); assay: Fluorescence polarization based DNA binding assay, rpoH operator; conditions: rpoH 27mer + 125 µM steroid
T1 construct: Hexa-histidine tag with TEV protease cleavage site (N, cleaved yes); made in house; host or cells: E. coli Rosetta Gami B(DE3) pLysS
T1 sequence (P39897 whole entry): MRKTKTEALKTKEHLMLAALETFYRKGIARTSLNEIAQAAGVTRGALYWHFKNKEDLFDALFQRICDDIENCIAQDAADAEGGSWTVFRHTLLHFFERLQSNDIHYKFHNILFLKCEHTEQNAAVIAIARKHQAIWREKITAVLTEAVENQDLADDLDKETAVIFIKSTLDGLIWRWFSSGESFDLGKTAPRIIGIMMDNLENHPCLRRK
Experimental: Fluorescence polarization based-DNA binding data were collected using a Panvera Beacon 2000 fluorescence polarization system (Invitrogen) and analyzed with Prism (Graphpad Software 9, 10). Purified MtrR was buffer exchanged into “DNA” binding buffer (150 mM NaCl, 20 mM Tris-HCl pH 7.5, 2.5% glycerol, 1 mM TCEP). […] The reported oligoduplexes containing the rpoH and mtrCDE binding site differ in lengths, 27mer and 21mer, respectively[17],[21]. […] BSA and dI-dC are included as carriers and to control for nonspecific DNA binding. Samples were excited at 490 nm and polarized emissions measured at 530 nm. Controls were run with no protein (DNA ± methanol, hormonal steroids) to ensure that millipolarization values were not affected by experimental conditions alone. The binding affinity of protein for DNA was determined using the following equation: P = Pf + (Pb – Pf) [M] / (Kd + [M]) where P is the measured polarization, Pf is the polarization of free DNA, Pb is the polarization of the completely bound DNA, Kd is the equilibrium dissociation constant, and M is the concentration of protein. Pb and Kd were determined by nonlinear least-squares analysis. At least three independent experimental measurements were averaged for each reported binding constant.

Structure (SMILES): C[C@]12CC[C@H]3[C@@H](CCC4=CC(=O)CC[C@@]43C)[C@@H]1CC[C@@H]2O [Testosterone, testosterone]
- growth curve reading after BLANKING (testosterone run) (FA19-rpoH-lacZ; 0 hr, 0.1 µM): 0.013
- growth curve reading, raw replicates (testosterone run) (FA19-rpoH-lacZ; 0 hr, 0.1 µM): 0.046
- growth curve reading after BLANKING (testosterone run) (FA19-rpoH-lacZ; 0 hr, 1 µM): 0.013
- growth curve reading, raw replicates (testosterone run) (FA19-rpoH-lacZ; 0 hr, 1 µM): 0.046
- growth curve reading after BLANKING (testosterone run) (FA19-rpoH-lacZ; 0 hr, 10 µM): 0.013
- growth curve reading, raw replicates (testosterone run) (FA19-rpoH-lacZ; 0 hr, 10 µM): 0.046
- growth curve reading after BLANKING (testosterone run) (FA19-rpoH-lacZ; 0 hr, 50 µM): 0.013
- growth curve reading, raw replicates (testosterone run) (FA19-rpoH-lacZ; 0 hr, 50 µM): 0.046
- growth curve reading after BLANKING (testosterone run) (FA19-rpoH-lacZ; 0 hr, 100 µM): 0.013
- growth curve reading, raw replicates (testosterone run) (FA19-rpoH-lacZ; 0 hr, 100 µM): 0.046
- growth curve reading after BLANKING (testosterone run) (FA19-rpoH-lacZ; 2 hr, 0.1 µM): 0.048
- growth curve reading, raw replicates (testosterone run) (FA19-rpoH-lacZ; 2 hr, 0.1 µM): 0.082 and 0.080 and 0.081
- growth curve reading after BLANKING (testosterone run) (FA19-rpoH-lacZ; 2 hr, 1 µM): 0.047
- growth curve reading, raw replicates (testosterone run) (FA19-rpoH-lacZ; 2 hr, 1 µM): 0.077 and 0.081 and 0.082
- growth curve reading after BLANKING (testosterone run) (FA19-rpoH-lacZ; 2 hr, 10 µM): 0.047
- growth curve reading, raw replicates (testosterone run) (FA19-rpoH-lacZ; 2 hr, 10 µM): 0.079 and 0.083
- growth curve reading after BLANKING (testosterone run) (FA19-rpoH-lacZ; 2 hr, 50 µM): 0.049
- growth curve reading, raw replicates (testosterone run) (FA19-rpoH-lacZ; 2 hr, 50 µM): 0.083 and 0.081
- growth curve reading after BLANKING (testosterone run) (FA19-rpoH-lacZ; 2 hr, 100 µM): 0.048
- growth curve reading, raw replicates (testosterone run) (FA19-rpoH-lacZ; 2 hr, 100 µM): 0.089 and 0.075 and 0.078
- growth curve reading after BLANKING (testosterone run) (FA19-rpoH-lacZ; 3 hr, 0.1 µM): 0.071
- growth curve reading after BLANKING (testosterone run) (FA19-rpoH-lacZ; 3 hr, 1 µM): 0.076
- growth curve reading after BLANKING (testosterone run) (FA19-rpoH-lacZ; 3 hr, 10 µM): 0.073
- growth curve reading after BLANKING (testosterone run) (FA19-rpoH-lacZ; 3 hr, 50 µM): 0.076
- growth curve reading after BLANKING (testosterone run) (FA19-rpoH-lacZ; 3 hr, 100 µM): 0.077
- growth curve reading, raw replicates (testosterone run) (FA19-rpoH-lacZ; 3 hr, 100 µM): 0.116
- growth curve reading after BLANKING (testosterone run) (FA19-rpoH-lacZ; 4.03 hr, 0.1 µM): 0.095
- growth curve reading, raw replicates (testosterone run) (FA19-rpoH-lacZ; 4.03 hr, 0.1 µM): 0.117
- growth curve reading after BLANKING (testosterone run) (FA19-rpoH-lacZ; 4.03 hr, 1 µM): 0.101
- growth curve reading after BLANKING (testosterone run) (FA19-rpoH-lacZ; 4.03 hr, 10 µM): 0.099
- growth curve reading after BLANKING (testosterone run) (FA19-rpoH-lacZ; 4.03 hr, 50 µM): 0.102
- growth curve reading after BLANKING (testosterone run) (FA19-rpoH-lacZ; 4.03 hr, 100 µM): 0.108
- growth curve reading, raw replicates (testosterone run) (FA19-rpoH-lacZ; 4.03 hr, 100 µM): 0.148
- growth curve reading after BLANKING (testosterone run) (FA19-rpoH-lacZ; 5.03 hr, 0.1 µM): 0.121
- growth curve reading, raw replicates (testosterone run) (FA19-rpoH-lacZ; 5.03 hr, 0.1 µM): 0.160 and 0.163
- growth curve reading after BLANKING (testosterone run) (FA19-rpoH-lacZ; 5.03 hr, 1 µM): 0.127
- growth curve reading, raw replicates (testosterone run) (FA19-rpoH-lacZ; 5.03 hr, 1 µM): 0.163 and 0.161 and 0.157
- growth curve reading after BLANKING (testosterone run) (FA19-rpoH-lacZ; 5.03 hr, 10 µM): 0.125
- growth curve reading, raw replicates (testosterone run) (FA19-rpoH-lacZ; 5.03 hr, 10 µM): 0.164 and 0.157 and 0.153
- growth curve reading after BLANKING (testosterone run) (FA19-rpoH-lacZ; 5.03 hr, 50 µM): 0.130
- growth curve reading, raw replicates (testosterone run) (FA19-rpoH-lacZ; 5.03 hr, 50 µM): 0.161 and 0.162 and 0.165
- growth curve reading after BLANKING (testosterone run) (FA19-rpoH-lacZ; 5.03 hr, 100 µM): 0.139
- growth curve reading, raw replicates (testosterone run) (FA19-rpoH-lacZ; 5.03 hr, 100 µM): 0.174 and 0.161 and 0.181
- growth curve reading after BLANKING (testosterone run) (FA19-rpoH-lacZ; 6.03 hr, 0.1 µM): 0.152
- growth curve reading, raw replicates (testosterone run) (FA19-rpoH-lacZ; 6.03 hr, 0.1 µM): 0.171 and 0.189 and 0.195
- growth curve reading after BLANKING (testosterone run) (FA19-rpoH-lacZ; 6.03 hr, 1 µM): 0.157
- growth curve reading, raw replicates (testosterone run) (FA19-rpoH-lacZ; 6.03 hr, 1 µM): 0.195 and 0.191 and 0.185
- growth curve reading after BLANKING (testosterone run) (FA19-rpoH-lacZ; 6.03 hr, 10 µM): 0.151
- growth curve reading, raw replicates (testosterone run) (FA19-rpoH-lacZ; 6.03 hr, 10 µM): 0.192 and 0.181 and 0.179
- growth curve reading after BLANKING (testosterone run) (FA19-rpoH-lacZ; 6.03 hr, 50 µM): 0.161
- growth curve reading, raw replicates (testosterone run) (FA19-rpoH-lacZ; 6.03 hr, 50 µM): 0.192 and 0.195
- growth curve reading after BLANKING (testosterone run) (FA19-rpoH-lacZ; 6.03 hr, 100 µM): 0.177
- growth curve reading, raw replicates (testosterone run) (FA19-rpoH-lacZ; 6.03 hr, 100 µM): 0.198
- growth curve reading after BLANKING (testosterone run) (FA19-rpoH-lacZ; 7.03 hr, 0.1 µM): 0.177
- growth curve reading, raw replicates (testosterone run) (FA19-rpoH-lacZ; 7.03 hr, 0.1 µM): 0.195
- growth curve reading after BLANKING (testosterone run) (FA19-rpoH-lacZ; 7.03 hr, 1 µM): 0.182
- growth curve reading, raw replicates (testosterone run) (FA19-rpoH-lacZ; 7.03 hr, 1 µM): 0.210
- growth curve reading after BLANKING (testosterone run) (FA19-rpoH-lacZ; 7.03 hr, 10 µM): 0.178
- growth curve reading, raw replicates (testosterone run) (FA19-rpoH-lacZ; 7.03 hr, 10 µM): 0.205
- growth curve reading, raw replicates (testosterone run) (FA19-rpoH-lacZ; 7.03 hr, 100 µM): 0.250
- growth curve reading after BLANKING (testosterone run) (FA19-rpoH-lacZ; 7.3 hr, 100 µM): 0.226
- growth curve reading, raw replicates (testosterone run) (FA19-rpoH-lacZ; 7.3 hr, 100 µM): 0.266 and 0.272
- growth curve reading after BLANKING (testosterone run) (FA19-rpoH-lacZ; […], 0.1 µM): 0.028
- growth curve reading after BLANKING (testosterone run) (FA19-rpoH-lacZ; […], 1 µM): 0.027
- growth curve reading after BLANKING (testosterone run) (FA19-rpoH-lacZ; […], 10 µM): 0.026
- growth curve reading after BLANKING (testosterone run) (FA19-rpoH-lacZ; […], 50 µM): 0.026
- growth curve reading after BLANKING (testosterone run) (FA19-rpoH-lacZ; […], 100 µM): 0.025
- fluorescence polarization, MtrR titration ([1]; MtrR WT dimer 0.00 nM): 0.00 mP
- fluorescence polarization, MtrR titration ([1]; MtrR WT dimer 6.35 nM): 2.56 mP and 4.77 mP and 2.79 mP
- fluorescence polarization, MtrR titration ([1]; MtrR WT dimer 8.85 nM): 4.03 mP and 4.45 mP
- fluorescence polarization, MtrR titration ([1]; MtrR WT dimer 11.32 nM): 4.86 mP and 6.47 mP and 4.69 mP
- fluorescence polarization, MtrR titration ([1]; MtrR WT dimer 16.21 nM): 6.33 mP and 8.37 mP and 6.42 mP
- fluorescence polarization, MtrR titration ([1]; MtrR WT dimer 25.90 nM): 9.43 mP and 8.25 mP
- fluorescence polarization, MtrR titration ([1]; MtrR WT dimer 35.50 nM): 11.51 mP and 12.65 mP and 12.17 mP
- fluorescence polarization, MtrR titration ([1]; MtrR WT dimer 54.52 nM): 15.46 mP and 15.52 mP
- fluorescence polarization, MtrR titration ([1]; MtrR WT dimer 73.35 nM): 17.83 mP and 19.00 mP and 18.19 mP
- fluorescence polarization, MtrR titration ([1]; MtrR WT dimer 110.67 nM): 21.89 mP and 23.20 mP and 21.59 mP
- fluorescence polarization, MtrR titration ([1]; MtrR WT dimer 147.65 nM): 25.36 mP and 23.99 mP
- fluorescence polarization, MtrR titration ([1]; MtrR WT dimer 220.59 nM): 26.93 mP and 29.97 mP and 27.52 mP
- fluorescence polarization, MtrR titration ([1]; MtrR WT dimer 292.55 nM): 30.66 mP and 32.37 mP and 31.12 mP
- fluorescence polarization, MtrR titration ([1]; MtrR WT dimer 363.86 nM): 32.43 mP and 34.37 mP and 33.42 mP
- fluorescence polarization, MtrR titration ([1]; MtrR WT dimer 434.54 nM): 34.93 mP and 38.17 mP and 35.29 mP
- fluorescence polarization, MtrR titration ([1]; MtrR WT dimer 504.61 nM): 36.76 mP and 39.37 mP and 37.09 mP
- fluorescence polarization, MtrR titration ([1]; MtrR WT dimer 574.07 nM): 38.43 mP and 40.67 mP and 39.72 mP
